From paper PMC11551755, “Structure-based discovery of first inhibitors targeting the helicase activity of human PIF1” (Nucleic Acids Research, 2024)
Like-named read-outs stand apart in the source and are kept apart here.

Target: T1, hPIF1HD (Homo sapiens, UniProt Q9H611)
T1 construct: the hPIF1HD construct starts at residue Gln 206 and ends at Leu 620; hexa-histidine tag (N, cleaved yes); made in house; host or cells: ArcticExpress BL21(DE3) E. coli (Agilent Technologies)
T1 sequence (Q9H611 206-620): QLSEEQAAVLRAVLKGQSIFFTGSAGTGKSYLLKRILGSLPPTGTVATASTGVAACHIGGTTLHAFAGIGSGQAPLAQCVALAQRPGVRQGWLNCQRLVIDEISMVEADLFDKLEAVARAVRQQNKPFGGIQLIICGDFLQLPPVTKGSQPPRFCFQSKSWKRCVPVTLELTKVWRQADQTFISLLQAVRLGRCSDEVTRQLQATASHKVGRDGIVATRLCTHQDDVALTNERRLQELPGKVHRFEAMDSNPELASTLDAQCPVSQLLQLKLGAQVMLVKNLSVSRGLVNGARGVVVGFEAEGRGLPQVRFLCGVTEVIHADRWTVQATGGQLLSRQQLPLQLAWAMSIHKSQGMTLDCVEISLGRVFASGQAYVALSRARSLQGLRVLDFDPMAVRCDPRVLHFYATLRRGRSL
Experiment: ssDNA d(T)55 binding assay (EMSA), wild-type hPIF1HD
Conditions: 5 mM AMP-PNP, read-out: IC50 for inhibition of hPIF1HD ssDNA binding, WT
Protocol: DNA binding of hPIF1HD was assayed using a ^32P-5′ end-labelled oligo d(T)55 substrate (0.25 nM), under the same buffer conditions described for helicase assays, but with AMP-PNP instead of ATP. Reaction products were resolved on 5% poly-acrylamide gels (29:1 acrylamide:bis-acrylamide) using 0.25× TBE running buffer ([19],[28]). Gels were processed and reaction products quantified by phosphorimaging and IC50 values determined as described above.
In the hPIF1HD/AMP-PNP/1 structure, the compound 1 binding site is largely between domains 2A and 2B and is absent in the modelled hPIF1HD-ssDNA complex (Figure 2), due to the large relative movement of domain 2B required for ssDNA binding, with or without bound nucleotide ([19],[34],[35],[47]). […] To test this, we assayed binding to a radiolabelled oligo d(T)55 substrate under helicase reaction conditions, with AMP-PNP instead of ATP, in the presence of the same SMIs selected for helicase IC50 analysis (Table 1). hPIF1HD was used rather than FLhPIF1 to eliminate the non-specific DNA binding activity of the N-terminal domain ([27],[29]), and complexes were resolved by gel electrophoresis (electrophoretic mobility shift assay, EMSA). […] With an increasing concentration of compound 1C (or other analogues of 1) or a derivative, progressive inhibition of ssDNA binding was observed, allowing determination of IC50 values for most compounds tested. It was not possible to obtain data for compounds 3, 7, 8 and 9 due to retention of substrate in the gel wells, possibly due to low solubility of the compounds (Supplementary Figure S10).
Figure 4. Inhibition of hPIF1HD ssDNA binding by compound 1 and derivatives. Binding reactions were assembled under helicase reaction conditions but with 0.25 nM radiolabelled oligo d(T)55, 2 nM hPIF1HD, 5 mM AMP-PNP and 0.0078–2 mM SMI. Products were resolved by EMSA for quantification and IC50 determination (n = 3 repeats). Bound ssDNA was calculated as the sum of the major and minor species, interpreted as one or two bound hPIF1HD molecules respectively. See also Supplementary Figure S10. IC50 values are given along with those determined for hPIF1HD variants V258A and V258L (see Supplementary Figure S12). TEXT PRINTED IN THE PICTURE: 1C: IC50 (μM): N.D. | 1E: IC50 (μM): N.D. | 2: IC50 (μM): WT: 224 ± 86; IC50 (μM): V258A: 103 ± 31; IC50 (μM): V258L: 304 ± 88 | 4: IC50 (μM): N.D. | 5: IC50 (μM): WT: 198 ± 54; IC50 (μM): V258A: 79.2 ± 27; IC50 (μM): V258L: 414 ± 45 | 6: IC50 (μM): WT: 722 ± 194; IC50 (μM): V258A: 295 ± 116; IC50 (μM): V258L: 1010 ± 282 | 10: IC50 (μM): WT: 224 ± 59; IC50 (μM): V258A: 152 ± 42; IC50 (μM): V258L: 378 ± 99 | 11: IC50 (μM): WT: 284 ± 110; IC50 (μM): V258A: 151 ± 51; IC50 (μM): V258L: 551 ± 215

[1] = 0.25 nM d(T)55, 2 nM hPIF1HD, 0.0078–2 mM SMI, n = 3

In the case of `N#Cc1ccc(-c2csc(N)n2)cc1` [Compound 5], the IC50 [1] is reported as 198 ± 54 µM.
In the case of `CC(=O)c1ccc(-c2csc(N)n2)cc1` [Compound 2], the IC50 (as printed in Supplementary Figure 12 legend, 2 nM hPIF1HD) is reported as 224 ± 86 µM.
With `CC(=O)Nc1ccc(-c2csc(N)n2)cc1C1=CCNCC1` [Compound 11] the IC50 [1] was 284 ± 110 µM.
With `CC(=O)Nc1ccc(-c2csc(N)n2)cc1-c1ccc(C)cc1` [Compound 10] the IC50 [1] was 224 ± 59 µM.
`Nc1nc(-c2ccc(C(=O)c3ccccc3)cc2)cs1` [Compound 6] was tested, and the IC50 [1] was 722 ± 194 µM.
